# Source: patent US9833497B2, “Human originated EGF domain proteins and use of the same” (CHENGDU SOURCEBIO LIMITED-LIABILITY COMPANY, priority 2013, dated 2017)
# Legend:
# Format in all cases: cell-based
# Enterobacter cloacae = test: MIC against Gram-negative bacteria: Enterobacter cloacae; conditions: for MIC against E. cloacae / MIC (μg/mL) E. cloacae / MIC E. cloacae: 5×10^5 CFU/mL
# Summary of the method: (§1)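 First, colonies from LB agar were grown in LB at 37° C, 185 rpm, to McFarland turbidity 0.5, then centrifuged and resuspended in fresh LB. Next, wells received 5×10^5 CFU/mL bacteria plus two-fold serially diluted EGF domain protein (triplicate). Finally, plates were shaken at 37° C and the no-growth concentration taken as MIC.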
# E. coli DH5α = test: Antibacterial activity: MIC and growth curve against E. coli DH5α in 96-well plate; conditions: minimal inhibitory concentration against E. coli DH5α; 96-well plate, 5×10^5 CFU/mL, 37° C., judged after 8 h
# Summary of the method: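 Log-phase DH5α (OD600 about 0.5, 37° C, 185 rpm in LB) was pelleted, resuspended in fresh LB and seeded at 5×10^5 CFU/mL with recombinant protein at 50, 25 and 12.5 μg/mL (two-fold series), in triplicate. Plates were shaken at 175 rpm, 37° C, and OD600 was read every 30 min. MIC was the lowest concentration with no growth.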
# Proteus vulgaris = test: MIC against Gram-negative bacteria: Proteus vulgaris; conditions: for MIC against P. vulgaris / MIC (μg/mL) P. vulgaris / MIC P. vulgaris: 5×10^5 CFU/mL
# Summary of the method: as §1
# Aeromonas hydrophila = test: MIC against Gram-negative bacteria: Aeromonas hydrophila; conditions: for MIC against A. hydrophila / MIC (μg/mL) A. hydrophila / MIC A. hydrophila: 5×10^5 CFU/mL
# Summary of the method: as §1
# Citrobacter diversus = test: MIC against Gram-negative bacteria: Citrobacter diversus; conditions: for MIC against C. diversus / MIC (μg/mL) C. diversus / MIC C. diversus: 5×10^5 CFU/mL
# Summary of the method: as §1
# Serratia marcescens = test: MIC against Gram-negative bacteria: Serratia marcescens; conditions: for MIC against S. marcescens / MIC (μg/mL) S. marcescens / MIC S. marcescens: 5×10^5 CFU/mL
# Summary of the method: as §1
# E. coli BL21 = test: MIC against Gram-negative bacteria: E. coli BL21; conditions: for MIC against E. coli BL21 / MIC (μg/mL) E. coli BL21 / MIC E. coli BL21: 5×10^5 CFU/mL; for MIC against E. coli BL21 / MIC / MIC (μg/mL) E. coli BL21: E. coli BL21
# Summary of the method: as §1
# Klebsiella pneumonia = test: MIC against Gram-negative bacteria: Klebsiella pneumonia; conditions: for MIC against K. pneumonia / MIC (μg/mL) K. pneumonia / MIC K. pneumonia: 5×10^5 CFU/mL
# Summary of the method: as §1
# Moraxella catarrhalis = test: MIC against Gram-negative bacteria: Moraxella catarrhalis; conditions: for MIC against M. catarrhalis / MIC (μg/mL) M. catarrhalis / MIC M. catarrhalis: 5×10^5 CFU/mL
# Summary of the method: as §1
# Pseudomonas aeruginosa = test: MIC against Gram-negative bacteria: Pseudomonas aeruginosa; conditions: for MIC against P. aeruginosa / MIC (μg/mL) P. aeruginosa / MIC P. aeruginosa: 5×10^5 CFU/mL
# Summary of the method: as §1
# Proteus mirabilis = test: MIC against Gram-negative bacteria: Proteus mirabilis; conditions: for MIC against P. mirabilis / MIC (μg/mL) P. mirabilis / MIC P. mirabilis: 5×10^5 CFU/mL
# Summary of the method: as §1
# [1] = E. cloacae, 10 h cultivation at 37° C.
# [2] = P. vulgaris, 10 h cultivation at 37° C.
# [3] = A. hydrophila, 10 h cultivation at 37° C.
# [4] = C. diversus, 10 h cultivation at 37° C.
# [5] = S. marcescens, 10 h cultivation at 37° C.
# [6] = K. pneumonia, 10 h cultivation at 37° C.
# [7] = M. catarrhalis, 10 h cultivation at 37° C.
# [8] = P. aeruginosa, 10 h cultivation at 37° C.
# [9] = P. mirabilis, 10 h cultivation at 37° C.
# [10] = 10 h cultivation at 37° C., two-fold serial dilution
# [11] = Enterobacter cloacae, 96-well plate, 37° C., 10 h
# [12] = Proteus vulgaris, 96-well plate, 37° C., 10 h
# [13] = Aeromonas hydrophila, 96-well plate, 37° C., 10 h
# [14] = Citrobacter diversus, 96-well plate, 37° C., 10 h
# [15] = Serratia marcescens, 96-well plate, 37° C., 10 h
# [16] = Klebsiella pneumonia, 96-well plate, 37° C., 10 h
# [17] = Moraxella catarrhalis, 96-well plate, 37° C., 10 h
# [18] = Pseudomonas aeruginosa, 96-well plate, 37° C., 10 h
# [19] = Proteus mirabilis, 96-well plate, 37° C., 10 h
substance,measurement,setting,value
PRT1463 (CDCDTAGSLPGTVCNAKTGQCICKPNVEGRQCNKCLEGNFYLRQNNSFLCLP; listed as Homo sapiens),MIC against E. cloacae,"Enterobacter cloacae; Enterobacter cloacae, 10 h cultivation at 37° C.",50 µg/mL
same,MIC,E. coli DH5α,50 µg/mL
same,MIC against P. vulgaris,"Proteus vulgaris; Proteus vulgaris, 10 h cultivation at 37° C.",25 µg/mL
same,MIC against A. hydrophila,"Aeromonas hydrophila; Aeromonas hydrophila, 10 h cultivation at 37° C.",12.5 µg/mL
same,MIC against C. diversus,"Citrobacter diversus; Citrobacter diversus, 10 h cultivation at 37° C.",50 µg/mL
same,MIC against S. marcescens,"Serratia marcescens; Serratia marcescens, 10 h cultivation at 37° C.",12.5 µg/mL
same,MIC against E. coli BL21,E. coli BL21; 10 h cultivation at 37° C.,25 µg/mL
same,MIC against K. pneumonia,"Klebsiella pneumonia; Klebsiella pneumonia, 10 h cultivation at 37° C.",25 µg/mL
same,MIC against M. catarrhalis,"Moraxella catarrhalis; Moraxella catarrhalis, 10 h cultivation at 37° C.",25 µg/mL
same,MIC against P. aeruginosa,"Pseudomonas aeruginosa; Pseudomonas aeruginosa, 10 h cultivation at 37° C.",12.5 µg/mL
same,MIC against P. mirabilis,"Proteus mirabilis; Proteus mirabilis, 10 h cultivation at 37° C.",12.5 µg/mL
PRT944 (TSHPCFVSRPCLNGGTCHMLSRDTYECTCQVGFTGKECQ; listed as Homo sapiens),MIC,Enterobacter cloacae; [1],50 µg/mL
same,MIC,E. coli DH5α,12.5 µg/mL
same,MIC,Proteus vulgaris; [2],50 µg/mL
same,MIC,Aeromonas hydrophila; [3],12.5 µg/mL
same,MIC,Citrobacter diversus; [4],50 µg/mL
same,MIC,Serratia marcescens; [5],12.5 µg/mL
same,MIC,E. coli BL21; 10 h cultivation at 37° C.,25 µg/mL
same,MIC,Klebsiella pneumonia; [6],100 µg/mL
same,MIC,Moraxella catarrhalis; [7],12.5 µg/mL
same,MIC,Pseudomonas aeruginosa; [8],50 µg/mL
same,MIC,Proteus mirabilis; [9],25 µg/mL
PRT998 (VPLCAPNLCQPKQICKDQKDKANCLCPDGSPGCA; listed as Homo sapiens),MIC,Enterobacter cloacae; [1],12.5 µg/mL
same,MIC,E. coli DH5α,12.5 µg/mL
same,MIC,Proteus vulgaris; [2],50 µg/mL
same,MIC,Aeromonas hydrophila; [3],50 µg/mL
same,MIC,Citrobacter diversus; [4],25 µg/mL
same,MIC,Serratia marcescens; [5],25 µg/mL
same,MIC,E. coli BL21; 10 h cultivation at 37° C.,50 µg/mL
same,MIC,Klebsiella pneumonia; [6],50 µg/mL
same,MIC,Moraxella catarrhalis; [7],12.5 µg/mL
same,MIC,Pseudomonas aeruginosa; [8],12.5 µg/mL
same,MIC,Proteus mirabilis; [9],25 µg/mL
PRT1014 (LRDFCSANPCVNGGVCLATYPQIQCHCPPGFEGHACE; listed as Homo sapiens),MIC,Enterobacter cloacae; [1],12.5 µg/mL
same,MIC,E. coli DH5α,12.5 µg/mL
same,MIC,Proteus vulgaris; [2],50 µg/mL
same,MIC,Aeromonas hydrophila; [3],50 µg/mL
same,MIC,Citrobacter diversus; [4],12.5 µg/mL
same,MIC,Serratia marcescens; [5],25 µg/mL
same,MIC,E. coli BL21; 10 h cultivation at 37° C.,25 µg/mL
same,MIC,Klebsiella pneumonia; [6],25 µg/mL
same,MIC,Moraxella catarrhalis; [7],50 µg/mL
same,MIC,Pseudomonas aeruginosa; [8],50 µg/mL
same,MIC,Proteus mirabilis; [9],12.5 µg/mL
PRT875 (GGSPCEAGEEGEGGVCLNGGVCSVVDDQAVCDCSRTGFRGKDCS; listed as Homo sapiens),MIC (μg/mL) E. cloacae,Enterobacter cloacae; [1],12.5 µg/mL
same,MIC,E. coli DH5α,25 µg/mL
same,MIC (μg/mL) P. vulgaris,Proteus vulgaris; [2],12.5 µg/mL
same,MIC (μg/mL) A. hydrophila,Aeromonas hydrophila; [3],50 µg/mL
same,MIC (μg/mL) C. diversus,Citrobacter diversus; [4],12.5 µg/mL
same,MIC (μg/mL) S. marcescens,Serratia marcescens; [5],12.5 µg/mL
same,MIC (μg/mL) E. coli BL21,E. coli BL21; 10 h cultivation at 37° C.,12.5 µg/mL
same,MIC (μg/mL) K. pneumonia,Klebsiella pneumonia; [6],50 µg/mL
same,MIC (μg/mL) M. catarrhalis,Moraxella catarrhalis; [7],25 µg/mL
same,MIC (μg/mL) P. aeruginosa,Pseudomonas aeruginosa; [8],25 µg/mL
same,MIC (μg/mL) P. mirabilis,Proteus mirabilis; [9],50 µg/mL
PRT732 (SVNPCAFSRCSHLCLLSSQGPHFYSCVCPSGWSLSPDLLNCL; listed as Homo sapiens),MIC E. cloacae,"Enterobacter cloacae; 96-well plate, 37° C., 10 h",25 µg/mL
same,MIC,E. coli DH5α,12.5 µg/mL
same,MIC P. vulgaris,"Proteus vulgaris; 96-well plate, 37° C., 10 h",25 µg/mL
same,MIC A. hydrophila,"Aeromonas hydrophila; 96-well plate, 37° C., 10 h",12.5 µg/mL
same,MIC C. diversus,"Citrobacter diversus; 96-well plate, 37° C., 10 h",25 µg/mL
same,MIC S. marcescens,"Serratia marcescens; 96-well plate, 37° C., 10 h",12.5 µg/mL
same,MIC E. coli BL21,"E. coli BL21; 96-well plate, 37° C., 10 h",50 µg/mL
same,MIC K. pneumonia,"Klebsiella pneumonia; 96-well plate, 37° C., 10 h",50 µg/mL
same,MIC M. catarrhalis,"Moraxella catarrhalis; 96-well plate, 37° C., 10 h",50 µg/mL
same,MIC P. aeruginosa,"Pseudomonas aeruginosa; 96-well plate, 37° C., 10 h",12.5 µg/mL
same,MIC P. mirabilis,"Proteus mirabilis; 96-well plate, 37° C., 10 h",25 µg/mL
PRT1119 (EVLECASAPCEHNASCLEGLGSFRCLCWPGYSGELCE; listed as Homo sapiens),MIC E. cloacae,Enterobacter cloacae; [10],12.5 µg/mL
same,MIC,E. coli DH5α,100 µg/mL
same,MIC P. vulgaris,Proteus vulgaris; [10],25 µg/mL
same,MIC A. hydrophila,Aeromonas hydrophila; [10],25 µg/mL
same,MIC C. diversus,Citrobacter diversus; [10],50 µg/mL
same,MIC S. marcescens,Serratia marcescens; [10],50 µg/mL
same,MIC E. coli BL21,E. coli BL21; [10],25 µg/mL
same,MIC K. pneumonia,Klebsiella pneumonia; [10],25 µg/mL
same,MIC M. catarrhalis,Moraxella catarrhalis; [10],25 µg/mL
same,MIC P. aeruginosa,Pseudomonas aeruginosa; [10],50 µg/mL
same,MIC P. mirabilis,Proteus mirabilis; [10],12.5 µg/mL
PRT1202 (GYDFCSERHNCMENSICRNLNDRAVCSCRDGFRALREDNAYCE; listed as Homo sapiens),MIC against E. cloacae,Enterobacter cloacae; [11],12.5 µg/mL
same,MIC,E. coli DH5α,50 µg/mL
same,MIC against P. vulgaris,Proteus vulgaris; [12],25 µg/mL
same,MIC against A. hydrophila,Aeromonas hydrophila; [13],50 µg/mL
same,MIC against C. diversus,Citrobacter diversus; [14],12.5 µg/mL
same,MIC against S. marcescens,Serratia marcescens; [15],50 µg/mL
same,MIC against E. coli BL21,"E. coli BL21; 96-well plate, 37° C., 10 h",12.5 µg/mL
same,MIC against K. pneumonia,Klebsiella pneumonia; [16],50 µg/mL
same,MIC against M. catarrhalis,Moraxella catarrhalis; [17],50 µg/mL
same,MIC against P. aeruginosa,Pseudomonas aeruginosa; [18],25 µg/mL
same,MIC against P. mirabilis,Proteus mirabilis; [19],12.5 µg/mL
PRT127 (CSGHCTSYGTNCENGGKCLERYHGYSCDCSNTAYDGTFCN; listed as Homo sapiens),MIC (μg/mL) E. cloacae,Enterobacter cloacae; [11],12.5 µg/mL
same,MIC,E. coli DH5α,12.5 µg/mL
same,MIC (μg/mL) P. vulgaris,Proteus vulgaris; [12],12.5 µg/mL
same,MIC (μg/mL) A. hydrophila,Aeromonas hydrophila; [13],25 µg/mL
same,MIC (μg/mL) C. diversus,Citrobacter diversus; [14],12.5 µg/mL
same,MIC (μg/mL) S. marcescens,Serratia marcescens; [15],12.5 µg/mL
same,MIC (μg/mL) E. coli BL21,"E. coli BL21; 96-well plate, 37° C., 10 h",12.5 µg/mL
same,MIC (μg/mL) K. pneumonia,Klebsiella pneumonia; [16],25 µg/mL
same,MIC (μg/mL) M. catarrhalis,Moraxella catarrhalis; [17],12.5 µg/mL
same,MIC (μg/mL) P. aeruginosa,Pseudomonas aeruginosa; [18],12.5 µg/mL
same,MIC (μg/mL) P. mirabilis,Proteus mirabilis; [19],12.5 µg/mL
PRT157 (VADPCASNPCHHGNCSSSSSSSSDGYLCICNEGYEGPNCE; listed as Homo sapiens),MIC (μg/mL) E. cloacae,Enterobacter cloacae; [1],25 µg/mL
same,MIC,E. coli DH5α,12.5 µg/mL
same,MIC (μg/mL) P. vulgaris,Proteus vulgaris; [2],12.5 µg/mL
same,MIC (μg/mL) A. hydrophila,Aeromonas hydrophila; [3],12.5 µg/mL
same,MIC (μg/mL) C. diversus,Citrobacter diversus; [4],12.5 µg/mL
same,MIC (μg/mL) S. marcescens,Serratia marcescens; [5],12.5 µg/mL
same,MIC (μg/mL) E. coli BL21,E. coli BL21; 10 h cultivation at 37° C.,50 µg/mL
same,MIC (μg/mL) K. pneumonia,Klebsiella pneumonia; [6],12.5 µg/mL
same,MIC (μg/mL) M. catarrhalis,Moraxella catarrhalis; [7],12.5 µg/mL
same,MIC (μg/mL) P. aeruginosa,Pseudomonas aeruginosa; [8],25 µg/mL
same,MIC (μg/mL) P. mirabilis,Proteus mirabilis; [9],12.5 µg/mL
